Assay results: EP1761537B1, “PYRROLO[2,1-C][1,4]BENZODIAZEPINE-NAPTHALIMIDE […] THROUGH […] AND PROCESS FOR PREPARATION THEREOF” (Council of Scientific and Industrial Research, priority 2004, dated 2006)

Experiments:
CT-DNA = assay: DNA Thermal Denaturation Studies; format: binding; conditions: 1:5 molar ratio [PBD]/[DNA], CT-DNA 100 µM, ligand 20 µM, 10 mM sodium phosphate + 1 mM EDTA, pH 7.00
Procedure: For CT-DNA alone at pH 7.00 ± 0.01, Tm = 69.8 °C ± 0.01 (mean value from 10 separate determinations), all ΔTm values are ± 0.1 - 0.2 °C. For a 1:5 molar ratio of [PBD]/[DNA], where CT-DNA concentration = 100 µM and ligand concentration = 20 µM in aqueous sodium phosphate buffer [10 mM sodium phosphate + 1 mM EDTA, pH 7.00 ± 0.01].

HT-29 = assay: In vitro cytotoxicity against human cancer cell lines (sulforhodamine B); format: cell-based; conditions: HT-29 (colon), 48 hours, read-out: percentage growth inhibition; for inhibition at 100 µM: 10^-4 mol/L; for inhibition at 10 µM: 10^-5 mol/L; for inhibition at 1 µM: 10^-6 mol/L
Procedure: (§1) In vitro cytotoxicity against human cancer cell lines: The human cancer cell lines procured from National Cancer Institute, Frederick, U.S.A or National Center for Cell Science; Pune, India. were used in present study. Cells were grown in tissue culture flasks in complete growth medium (RPMI-1640 medium with 2 mM glutamine, 100 µg/ml streptomycin, pH 7.4, sterilized by filtration and supplemented with 10% fetal calf serum and 100 units/ml penicillin before use) at 37°C in an atmosphere of 5% CO2 and 90% relative humidity in a carbon dioxide incubator. The cells at subconfluent stage were harvested from the flask by treatment with trypsin (0.5% in PBS containing 0.02% EDTA) for determination of cytotoxicity. Cells with viability of more than 98% as determined by trypan blue exclusion were used for assay. The cell suspension of the required cell density were prepared in complete growth medium with gentamycin (50µg/ml) for determination of cytotoxicity.
(§2) A stock solutions of (2 X 10^-2 M) of test material were prepared in DMSO . The stock solutions were serially diluted with complete growth medium containing 50µg/ml of gentamycin to obtain working test solutions of required concentrations.
(§3) In vitro cytotoxicity against human cancer cell lines was determined (Monks, A., Scudiero, D., Skehan, P, Shoemaker R, Paull, K., Vistica, D., Hose, C., Langley, J., Cronise, P., Vaigro-Wolff, A., Gray-Goodrich, M.; Campbell,H., Mayo, J and Boyd M. J. Natl. Cancer Inst.,1991,83, 757-766) using 96-well tissue culture plates. The 100 µl of cell suspension was added to each well of the 96-well tissue culture plate. The cells were incubated for 24 hours. Test materials in complete growth medium (100µl) were added after 24 hours incubation to the wells containing cell suspension. The plates were further incubated for 48 hours (at 37°C in an atmosphere of 5% and 90% relative humidity in a carbon dioxide incubator) after addition of test material and then the cell growth was stopped by gently layering trichloroacetic acid (TCA, 50µl, 50%) on top of the medium in all the wells. The plates were incubated at 4°C for one hour to fix the cells attached to the bottom of the wells. The liquid of all the wells was gently pipetted out and discarded. The plates were washed five times with distilled water to remove TCA, growth medium low molecular weight metabolites, serum proteins etc and air-dried. Cell growth was measured by staining with sulforhodamine B dye (Skehan et al., 1990). The adsorbed dye was dissolved in Tris-Buffer ([…], 0.01M, pH 10.4) and plates were gently stirred for 5 minutes on a mechanical stirrer. The optical density was recorded on ELISA reader at 540 nm.
(§4) The cell growth was calculated by subtracting mean OD value of respective blank from the mean OD value of experimental set. Percent growth in presence of test material was calculated considering the growth in absence of any test material as 100% and in turn percent growth inhibition in presence of test material will be calculated.

SiHa = assay: as above; format: cell-based; conditions: SiHa (cervix), 48 hours, read-out: percentage growth inhibition; for inhibition at 10 µM: 10^-5 mol/L; for inhibition at 1 µM: 10^-6 mol/L; for inhibition at 100 µM: 10^-4 mol/L
Procedure: as §1, §2, §3, §4

HOP-62 = assay: as above; format: cell-based; conditions: HOP-62 (lung), 48 hours, read-out: percentage growth inhibition; for inhibition at 10 µM: 10^-5 mol/L; for inhibition at 1 µM: 10^-6 mol/L
Procedure: as §1, §2, §3, §4

A-549 = assay: as above; format: cell-based; conditions: A549, A-549 (lung), 48 hours, read-out: percentage growth inhibition; for inhibition at 100 µM: 10^-4 mol/L
Procedure: as §1, §2, §3, §4

HCT-15 = assay: as above; format: cell-based; conditions: HCT-15 (colon), 48 hours, read-out: percentage growth inhibition; for inhibition at 10 µM: 10^-5 mol/L; for inhibition at 1 µM: 10^-6 mol/L
Procedure: as §1, §2, §3, §4

Row | SMILES | Induced […]Tm °C after incubation at 37 °C (CT-DNA; 0 h incubation at 37 °C) [°C] | Induced […]Tm °C after incubation at 37 °C (CT-DNA; 18 h incubation at 37 °C) [°C] | inhibition at 100 µM (HT-29) [%] | inhibition at 10 µM (HT-29) [%] | inhibition at 1 µM (HT-29) [%] | inhibition at 10 µM (SiHa) [%] | inhibition at 1 µM (SiHa) [%] | inhibition at 10 µM (HOP-62) [%] | inhibition at 1 µM (HOP-62) [%] | inhibition at 100 µM (A-549) [%] | inhibition at 10 µM (HCT-15) [%] | inhibition at 1 µM (HCT-15) [%] | inhibition at 100 µM (SiHa) [%] | inhibition at 100 µM (HOP-62; 10^-4 mol/L) [%] | inhibition at 10 µM (A-549; 10^-5 mol/L) [%] | inhibition at 1 µM (A-549; 10^-6 mol/L) [%]
1 | COc1cc2c(cc1OCCCN1CCN(CCN3C(=O)c4cccc5cccc(c45)C3=O)CC1)N=C[C@@H]1CCCN1C2=O [VIIIb, 7-Methoxy-8-{3-[4-[2-(1,3-dioxo-benz[de]isoquinolin-2-yl)ethyl]piperazin-1-yl]propyl}-oxy-(11aS)-1,2,3,11a tetrahydro-5H-pyrrolo [2,1-c][1,4]benzodiazepin-5-one] | 25.8 | 26.7 | 88 | 85 | 91 | 44 | 54 | 86 | 72 | 88 | 59 | 58 | – | – | – | –
2 | COc1cc2c(cc1OCCCCN1CCN(CCN3C(=O)c4cccc5cccc(c45)C3=O)CC1)N=C[C@@H]1CCCN1C2=O [VIIIc, 7-Methoxy-8-{4-[4-[2-(1,3-dioxo-benz[de]isoquinolin-2-yl)ethyl]piperazin-1-yl]butyl}-oxy-(11aS)-1,2,3,11a tetrahydro-5H-pyrrolo [2,1-c][1,4]benzodiazepin-5-one] | 23.4 | 24.2 | 94 | 86 | 80 | 39 | – | 93 | 86 | 95 | 69 | 60 | 56 | – | – | –
3 | COc1cc2c(cc1O)N=CC1CCCN1C2=O (centres unmarked) [DC-81, reference compound] | 0.3 | 0.7 | – | – | – | – | – | – | – | – | – | – | – | – | – | –
4 | COc1cc2c(cc1OCCN1CCN(CCN3C(=O)c4cccc5cccc(c45)C3=O)CC1)N=C[C@@H]1CCCN1C2=O [VIIIa, 7-Methoxy-8-{2-[4-[2-(1,3-dioxo-benz[de]isoquinolin-2-yl)ethyl]piperazin-1=yl]ethyl}-oxy-(11aS)-1,2,3,11a tetrahydro-5H-pyrrolo [2,1-c][1,4]benzodiazepin-5-one] | 21.9 | 22.7 | – | – | – | – | – | – | – | – | – | – | – | – | – | –
5 | COc1cc2c(cc1OCCCCN1CCN(CCCCN3C(=O)c4cccc5cccc(c45)C3=O)CC1)N=C[C@@H]1CCCN1C2=O [VIIIe, 7-Methoxy-8-{4-[4-[4-(1,3-dioxo-benz[de]isoquinolin-2-yl)butyl]piperazin-1-yl]butyl}-oxy-(11aS)-1,2,3,11a tetrahydro-5H-pyrrolo [2,1-c][1,4]benzodiazepin-5-one] | 20.9 | 21.7 | 92 | 78 | 67 | 40 | 44 | 93 | 80 | 93 | 62 | 59 | 42 | – | – | –
6 | COc1cc2c(cc1OCCCN1CCN(CCCN3C(=O)c4cccc5cccc(c45)C3=O)CC1)N=C[C@@H]1CCCN1C2=O [VIIId, 7-Methoxy-8-{3-[4-[3-(1,3-dioxo-benz[de]isoquinolin-2-yl)propyl]piperazin-1-yl]propyl}-oxy-(11aS)-1,2,3,11a tetrahydro-5H-pyrrolo [2,1-c][1,4]benzodiazepin-5-one] | 13.1 | 14.3 | 95 | 62 | 63 | 65 | 31 | – | – | 95 | – | – | 85 | 78 | 30 | 51
